Test results from patent publication US8247572B2, “Facilitated transport of bisphosphonates by vitamin C” (Duke University, priority 2005, dated 2012).

Key:
[1] = system: primary human chondrocytes; experiment: BP / BP-AA uptake assay in chondrocyte monolayer (HPLC); assay type: cell-based
Experimental: Uptake Assay Methods. Primary human chondrocytes were seeded at a density of 4.5×10^5 cells for 48 hours. The cells were washed with ascorbic acid transport buffer. The free bisphosphonate (BP) and the bisphosphonate conjugated to ascorbic acid (BP-AA) were solubilized in ascorbic acid transport buffer at 10 mM concentration. The cells were incubated with either the free BP or the BP-AA for an hour at 37° C./5% CO2. The cells were washed 4× with ice-cold PBS to remove any extracellular BP or BP-AA. The cells were then lysed in 250 μl ddH2O for 15 minutes on ice, sonicated for 5 minutes, and then scraped from the culture dish. The lysate was then analyzed by ion pair reverse phase HPLC with UV and electrochemical detection (ECD) as described below.
HPLC Methods. Ascorbic acid, free and conjugated, and risedronate analogs were determined by a modification of an ion pair reverse phase high-performance liquid chromatography method initially described by Vallano et al. (Vallano, P. T., Shugarts, S. B., Kline, W. F., Woolf, E. J., and Matuszewski, B. K., Determination of Risedronate in Human Urine by Column-Switching Ion-Pair High-Performance Liquid Chromatography with Ultraviolet Detection. J Chromatogr B Analyt Technol Biomed Life Sci, 2003, 794:23-33). The column consisted of a C18 packing, the mobile phase contained 8% acetonitrile and 92% of 0.005M Q8 (1-octyltriethylammonium phosphate [Regis Technologies, Morton Grove, Ill.]) and 1 mM etidronate (1-hydroxyethylidene-1,1-diphosphonic acid [Strem Chemicals, Newburyport, Mass.]) in a sodium phosphate buffer, pH 6.2, and was pumped at […]. The injection volume was 100 μl and detection was at 262 nm (UV) and 0.7V (ECD).

[2] = system: primary human chondrocytes; experiment: Ascorbic acid transport assay in isolated primary human chondrocytes; assay type: cell-based; conditions: for ability to compete with L-14C-Asc for transport: 2 mM unlabeled competitor; for suppression of L-14C-Asc transport by unlabeled competitor: 2 mM competitor, versus no competitor
Experimental: Ascorbic Acid Transport Assay in Isolated Primary Human Chondrocytes. AA transport was measured using a modified version of the uptake assay published by Wilson and Dixon (J. X. Wilson, S. J. Dixon, High-Affinity Sodium-Dependent Uptake of Ascorbic Acid by Rat Osteoblasts, J. Mem. Biol. 111 (1989) 83-91). Primary human chondrocytes were seeded at a density of 4.5×10^5 cells/well on a 6-well plate (or 2.25×10^5 cells/well on a 12-well plate for the kinetic experiments). Prior to the transport assay, cells were plated for 48 hours in DMEM/F12, containing 10% FCS but no AA. Cells were washed in transport buffer containing: 134 mM NaCl, 5.4 mM KCl, 1.8 mM CaCl2, 0.8 mM MgSO4, 10 mM D-glucose, 20 mM HEPES, pH 7.3 with NaOH. […] The standard AA transport assay conditions were 37° C./5% CO2 for 10 minutes. AA uptake was terminated by washing the cells four-times in ice-cold PBS. The cells were lysed with Puregene Cell Lysis Solution (Gentra Systems) and scintillation counting was performed in Uniscint BD (National Diagnostics).
In experiments with sodium free transport buffer, iso-osmotic concentrations of LiCl were substituted for NaCl. […]

[3] = system: primary human chondrocytes; experiment: Dehydroascorbate transport assay in isolated primary human chondrocytes; assay type: cell-based; conditions: for ability to compete with L-14C-DHA transport: 2 mM unlabeled competitor; for mode of inhibition of L-14C-DHA transport (Dixon plot): data not shown; for inhibition of DHA transport: 0.1 mM inhibitor, p<0.001; for increase in L-14C-DHA uptake versus 21% oxygen tension: 24 hours
Experimental: Dehydroascorbate Transport Assay in Isolated Primary Human Chondrocytes. DHA transport was measured using a modified version of the uptake assay published by Wilson and Dixon (Wilson J X, Dixon S J. High-Affinity Sodium-Dependent Uptake of Ascorbic Acid by Rat Osteoblasts. J. Mem. Biol. 1989; 111:83-91). Primary human chondrocytes were seeded at a density of 4.5×10^5 cells/well on a 6-well plate. Prior to the transport assay, cells were plated for 48 hours in DMEM/F12, containing 10% FCS but no AA or DHA. Cells were washed in transport buffer containing: 134 mM LiCl, 5.4 mM KCl, 1.8 mM CaCl2, 0.8 mM MgSO4, 20 mM HEPES, pH 7.3 with KOH. DHA uptake was assessed by incubating the chondrocytes in transport buffer containing 189 μM L-^14C-dehydroascorbate (L-^14C-DHA). […] The standard DHA transport assay conditions were 37° C./5% CO2/21% O2 for 10 min. DHA uptake was terminated by washing the cells four-times in ice-cold PBS. […] The total pmol of L-^14C-DHA transported was calculated using the total dpm of L-^14C-DHA transported and the specific activity of the radiolabel.
Matrix Biol. 2002; 21:175-184). Stock solutions of different unlabeled DHA forms were generated in the same manner as the L-^14C-DHA. […]

[4] = system: human articular cartilage explants; conditions: 50 µM
Excerpt: Cartilage explants were isolated from human knee articular cartilage surgical waste tissues at the time of knee replacement surgery (n=5). Cartilage was harvested from non-lesioned areas, using a 2 mm diameter micro dissecting trephine (Biomedical Research Instruments, Rockville, Md.). A group of five cartilage plugs was pooled to constitute one sample. Each sample was paired with a corresponding sample from the same specimen and the same sites. The cartilage plugs were weighed and then transferred to a 24-well plate, containing 1 ml wash media (described in the chondrocyte isolation procedure). The cartilage plugs were incubated in 1 ml DMEM/F12 (Gibco, Grand Island, N.Y.) with 10% FCS (Gibco) and no AA for 48 hours at 37° C./5% CO2, prior to the procedures below.
The cartilage explants were washed with PBS and half of the samples were transferred to 1.5 ml centrifuge tubes with a drop of PBS. The tubes were frozen in liquid nitrogen for three minutes and thawed at 37° C. for five minutes. This freeze/thaw procedure was performed for a total of three cycles. The dead explants were transferred back to the 24-well plates.
Explant Ascorbic Acid Transport Assay. […] Samples were processed to isolate the cells from the matrix fraction (see Intracellular versus Extracellular AA) or counted for radioactivity by transferring the whole explants to glass scintillation vials and solubilizing the samples overnight at room temperature in 0.5 ml Solulene 350 (Perkin Elmer Life and Analytical Services, Boston, Mass.). Hionic Fluor scintillation fluid (5 ml, Perkin Elmer Life and Analytical Services) was added, and radioactivity was counted in the live and dead explants, using a scintillation counter.
Explant isolation, explant treatments, and the explant AA transport assay (through the PBS wash step) were performed, followed by the chondrocyte isolation procedure described above. After the cell fraction was isolated from the matrix, the cells were washed, then 15 μl of the cells were counted on a hemacytometer, in order to determine the total number of cells in the cell fraction. […]

[5] = 100 μM inhibitor, 10 minutes, p<0.001

O=C(CCC(=O)OCC(O)C1OC(=O)C(O)=C1O)Nc1ccc(NC(P(=O)(O)O)P(=O)(O)O)nc1 [BP-AA, 6-O-{N-[6-[(bisphosphonomethyl)amino]pyridin-3-yl]}succinyl-L-ascorbic acid]
transport of BP-AA versus AA alone ([1]; 10 mM BP-AA, one hour): 143 fold | amount gaining entry to chondrocytes in monolayer ([1]; 10 mM, one hour, 37° C.): 2281 nmol/mg protein | inhibition at 10000 µM ([1]; Homo sapiens, Chondrocyte, 1 h, 10 mM BP-AA, one hour, no sodium, read-out: inhibition of BP-AA uptake in the absence of sodium): 50%

O=C1O[C@H]([C@H](O)CO)C(O)=C1O [D-Asc, D-isoascorbic acid]
ability to compete with L-14C-Asc for transport ([2]; 10 minutes): unable to effectively compete | ability to compete with L-14C-DHA transport ([3]; 10 min): able to effectively compete | mode of inhibition of L-14C-DHA transport (Dixon plot) [3]: non-competitive inhibitors

O=C1O[C@@H]([C@H](O)CO)C(=O)C1=O [D-DHA, D-dehydroascorbate]
ability to compete with L-14C-DHA transport ([3]; 10 min): able to effectively compete

O=C1OC(C(O)CO)C(=O)C1=O [DHA, L-dehydroascorbate]
ability to compete with L-14C-Asc for transport ([2]; 10 minutes): unable to effectively compete | ability to compete with L-14C-DHA transport ([3]; 10 min): able to effectively compete | increase in DHA transport versus 21% oxygen tension ([3]; human, 10 min, 189 µM, pH 7.3): 2.7 fold | increase of DHA transport versus 21% oxygen tension ([3]; human, 10 min, 189 µM, pH 7.3): 3.2 fold | increase of DHA transport versus 21% oxygen tension, mean ([3]; human, 10 min, 189 µM, pH 7.3): 3.5 fold | passive diffusion of DHA as share of transport under optimized conditions ([3]; human, 10 min, 189 µM, pH 7.3): 11%

O=C1O[C@H]([C@@H](O)CO)C(O)=C1O [L-Asc, L-ascorbic acid]
vMax for AA transport in chondrocytes ([2]; 0-500 μM L-14C-Asc, Michaelis-Menten): 148+/−35 pmol L-^14C-Asc/10^6 cells/10 minutes | Km ([2]; 0-500 μM L-14C-Asc, Michaelis-Menten, read-out: Km for AA transport in chondrocytes): 179 µM | concentration of unlabeled L-Asc at which the transporter is fully saturated ([2]; 200 μM L-14C-Asc, 10 minutes): approximately 1000 μM | suppression of L-14C-Asc transport by unlabeled competitor ([2]; 10 minutes, p<0.001): approximately 60% | calculated intracellular concentration of total AA, deep zone cells [4]: 45 mM | calculated intracellular concentration of total AA, middle zone cells [4]: 51 mM | calculated intracellular concentration of total AA, superficial zone cells [4]: 67 mM | ability to compete with L-14C-DHA transport ([3]; 10 min): able to effectively compete | mode of inhibition of L-14C-DHA transport (Dixon plot) [3]: non-competitive inhibitors

O=C1O[C@H]([C@H](O)CO)C([O-])=C1O.[Na+] [Na D-Asc, Na D-isoascorbate]
ability to compete with L-14C-Asc for transport ([2]; 10 minutes): unable to effectively compete | ability to compete with L-14C-DHA transport ([3]; 10 min): able to effectively compete

O=C1O[C@H]([C@@H](O)CO)C([O-])=C1O.[Na+] [Na L-Asc, Na L-ascorbate]
suppression of L-14C-Asc transport by unlabeled competitor ([2]; 10 minutes, p<0.001): 75% | ability to compete with L-14C-DHA transport ([3]; 10 min): able to effectively compete

C=C1[C@@H](C)[C@H]2[C@H](Cc3ccccc3)NC(=O)[C@]23OC(=O)/C=C/[C@H](O)CCC[C@@H](C)C/C=C/[C@H]3[C@@H]1O [cytochalasin B]
inhibition of L-14C-Asc transport [2, 5]: 40% | inhibition of DHA transport ([3]; 10 min): 95%

C[C@H]1C/C=C/[C@H]2[C@@H]3O[C@]3(C)[C@@H](C)[C@H]3[C@H](Cc4ccccc4)NC(=O)[C@]32OC(=O)O/C=C/[C@@](C)(O)C1=O [cytochalasin E]
inhibition of L-14C-Asc transport [2, 5]: 35% | inhibition of DHA transport ([3]; 10 min): 40%

O=C1C(CC[S+]([O-])c2ccccc2)C(=O)N(c2ccccc2)N1c1ccccc1 (stereo not shown) [sulfinpyrazone]
inhibition at 100 µM ([1]; Homo sapiens, Chondrocyte, 0.75 h, 100 μM sulfinpyrazone, 45 minutes in advance of 10 mM BP-AA): ~75% | inhibition at 100 µM ([2]; Homo sapiens, Chondrocyte, 10 min, 100 μM inhibitor, 10 minutes, p<0.001, read-out: inhibition of L-14C-Asc transport): ~65%

L-^14C-dehydroascorbate [L-^14C-DHA]
increase in L-14C-DHA uptake versus 21% oxygen tension ([3]; 2.5% oxygen, absence of glucose): 1.6 fold | increase in L-14C-DHA uptake versus 21% oxygen tension ([3]; 5% oxygen): no increase | 14C-DHA Uptake (change versus 21% oxygen tension) ([3]; O2 tension 5%, 24 hrs): No change

Na D-dehydroascorbate [Na D-DHA]
ability to compete with L-14C-DHA transport ([3]; 10 min): unable to compete

Na L-dehydroascorbate [Na L-DHA]
ability to compete with L-14C-DHA transport ([3]; 10 min): able to effectively compete
